Data: paper PMC4774911, “Biochemical Screening of Five Protein Kinases from Plasmodium falciparum against 14,000 Cell-Active Compounds” (PLoS ONE, 2016)
Several values for one entry are separate records, joined by “and”; a condition that tells them apart may be missing. Equal values may be shown once.

How the values were obtained:
P. falciparum DD2 = system: P. falciparum DD2; parameters: method as in ChEMBL; conditions: ref ChEMBL; cited from earlier work
TAOK3 = molecular target: T1, TAOK3 (Homo sapiens, UniProt Q9H2K8); experiment: biochemical; parameters: endogenous in cells; host or cells: K562 cell extract; species or system K562 (extract); replicate k of n = 2 (each experiment ID is one independent experiment; two experiment IDs per compound); conditions: read-out: KDapp
T1 sequence (Q9H2K8 1-898): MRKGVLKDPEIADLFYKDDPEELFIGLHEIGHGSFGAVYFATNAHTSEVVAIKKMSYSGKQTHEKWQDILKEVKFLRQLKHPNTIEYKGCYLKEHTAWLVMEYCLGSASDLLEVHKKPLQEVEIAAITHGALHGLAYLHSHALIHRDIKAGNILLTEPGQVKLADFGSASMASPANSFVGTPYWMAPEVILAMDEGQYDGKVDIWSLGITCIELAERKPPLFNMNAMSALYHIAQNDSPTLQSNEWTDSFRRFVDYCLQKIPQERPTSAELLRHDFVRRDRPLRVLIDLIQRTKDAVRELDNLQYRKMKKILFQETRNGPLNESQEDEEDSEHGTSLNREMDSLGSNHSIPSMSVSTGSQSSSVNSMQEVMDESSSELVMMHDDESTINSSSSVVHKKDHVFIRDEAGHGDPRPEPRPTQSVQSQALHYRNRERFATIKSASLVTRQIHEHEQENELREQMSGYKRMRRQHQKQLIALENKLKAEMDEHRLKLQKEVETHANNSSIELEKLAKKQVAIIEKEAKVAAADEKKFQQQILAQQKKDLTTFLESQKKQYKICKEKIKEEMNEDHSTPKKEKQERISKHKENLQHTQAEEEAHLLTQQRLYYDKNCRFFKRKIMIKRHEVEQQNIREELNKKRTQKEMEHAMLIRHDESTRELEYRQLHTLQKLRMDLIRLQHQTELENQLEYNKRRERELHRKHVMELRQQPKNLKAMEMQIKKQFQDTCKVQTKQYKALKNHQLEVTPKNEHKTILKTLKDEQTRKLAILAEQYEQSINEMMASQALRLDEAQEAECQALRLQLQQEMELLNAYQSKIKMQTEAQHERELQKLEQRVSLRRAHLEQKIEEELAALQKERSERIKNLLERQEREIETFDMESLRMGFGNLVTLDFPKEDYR

CHEK1 = molecular target: T2, CHEK1 (Homo sapiens, UniProt O14757); experiment: biochemical; parameters: endogenous in cells; host or cells: K562 cell extract; species or system K562 (extract); replicate k of n = 2 (each experiment ID is one independent experiment; two experiment IDs per compound); conditions: read-out: KDapp
T2 sequence (O14757 1-476): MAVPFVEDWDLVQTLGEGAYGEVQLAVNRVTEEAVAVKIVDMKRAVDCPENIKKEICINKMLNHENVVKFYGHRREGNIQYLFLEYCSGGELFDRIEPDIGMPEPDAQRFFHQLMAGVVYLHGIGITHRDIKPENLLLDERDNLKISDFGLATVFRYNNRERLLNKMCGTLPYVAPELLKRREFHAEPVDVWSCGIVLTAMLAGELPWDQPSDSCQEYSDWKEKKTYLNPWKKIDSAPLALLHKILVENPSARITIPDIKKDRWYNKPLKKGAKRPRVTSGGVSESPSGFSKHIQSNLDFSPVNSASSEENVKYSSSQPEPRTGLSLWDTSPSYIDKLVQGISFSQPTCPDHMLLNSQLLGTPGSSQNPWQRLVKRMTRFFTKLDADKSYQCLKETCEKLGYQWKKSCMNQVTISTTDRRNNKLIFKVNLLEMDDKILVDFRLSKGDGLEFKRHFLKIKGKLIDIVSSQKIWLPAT

ACVR1 = molecular target: T3, ACVR1 (Homo sapiens, UniProt Q04771); experiment: biochemical; parameters: endogenous in cells; host or cells: K562 cell extract; species or system K562 (extract); replicate k of n = 2 (each experiment ID is one independent experiment; two experiment IDs per compound); conditions: read-out: KDapp
T3 sequence (Q04771 1-509): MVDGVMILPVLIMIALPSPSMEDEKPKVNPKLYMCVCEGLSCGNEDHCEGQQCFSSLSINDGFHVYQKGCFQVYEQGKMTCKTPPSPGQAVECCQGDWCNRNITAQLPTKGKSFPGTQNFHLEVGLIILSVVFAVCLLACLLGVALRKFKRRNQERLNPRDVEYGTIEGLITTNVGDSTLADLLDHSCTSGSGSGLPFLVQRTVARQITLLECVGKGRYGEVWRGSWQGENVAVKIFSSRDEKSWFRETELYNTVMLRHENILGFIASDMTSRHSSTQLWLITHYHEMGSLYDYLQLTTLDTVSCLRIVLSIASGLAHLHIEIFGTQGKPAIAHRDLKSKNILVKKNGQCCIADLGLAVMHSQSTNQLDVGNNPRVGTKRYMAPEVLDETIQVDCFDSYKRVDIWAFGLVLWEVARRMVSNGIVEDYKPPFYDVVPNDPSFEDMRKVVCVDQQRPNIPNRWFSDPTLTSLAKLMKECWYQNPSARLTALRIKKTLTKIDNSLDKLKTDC

MAST3 = MAST3 (Homo sapiens, UniProt O60307); experiment: biochemical; parameters: endogenous in cells; host or cells: K562 cell extract; species or system K562 (extract); replicate k of n = 2 (each experiment ID is one independent experiment; two experiment IDs per compound); conditions: read-out: KDapp
Sequence of MAST3 (O60307 whole entry): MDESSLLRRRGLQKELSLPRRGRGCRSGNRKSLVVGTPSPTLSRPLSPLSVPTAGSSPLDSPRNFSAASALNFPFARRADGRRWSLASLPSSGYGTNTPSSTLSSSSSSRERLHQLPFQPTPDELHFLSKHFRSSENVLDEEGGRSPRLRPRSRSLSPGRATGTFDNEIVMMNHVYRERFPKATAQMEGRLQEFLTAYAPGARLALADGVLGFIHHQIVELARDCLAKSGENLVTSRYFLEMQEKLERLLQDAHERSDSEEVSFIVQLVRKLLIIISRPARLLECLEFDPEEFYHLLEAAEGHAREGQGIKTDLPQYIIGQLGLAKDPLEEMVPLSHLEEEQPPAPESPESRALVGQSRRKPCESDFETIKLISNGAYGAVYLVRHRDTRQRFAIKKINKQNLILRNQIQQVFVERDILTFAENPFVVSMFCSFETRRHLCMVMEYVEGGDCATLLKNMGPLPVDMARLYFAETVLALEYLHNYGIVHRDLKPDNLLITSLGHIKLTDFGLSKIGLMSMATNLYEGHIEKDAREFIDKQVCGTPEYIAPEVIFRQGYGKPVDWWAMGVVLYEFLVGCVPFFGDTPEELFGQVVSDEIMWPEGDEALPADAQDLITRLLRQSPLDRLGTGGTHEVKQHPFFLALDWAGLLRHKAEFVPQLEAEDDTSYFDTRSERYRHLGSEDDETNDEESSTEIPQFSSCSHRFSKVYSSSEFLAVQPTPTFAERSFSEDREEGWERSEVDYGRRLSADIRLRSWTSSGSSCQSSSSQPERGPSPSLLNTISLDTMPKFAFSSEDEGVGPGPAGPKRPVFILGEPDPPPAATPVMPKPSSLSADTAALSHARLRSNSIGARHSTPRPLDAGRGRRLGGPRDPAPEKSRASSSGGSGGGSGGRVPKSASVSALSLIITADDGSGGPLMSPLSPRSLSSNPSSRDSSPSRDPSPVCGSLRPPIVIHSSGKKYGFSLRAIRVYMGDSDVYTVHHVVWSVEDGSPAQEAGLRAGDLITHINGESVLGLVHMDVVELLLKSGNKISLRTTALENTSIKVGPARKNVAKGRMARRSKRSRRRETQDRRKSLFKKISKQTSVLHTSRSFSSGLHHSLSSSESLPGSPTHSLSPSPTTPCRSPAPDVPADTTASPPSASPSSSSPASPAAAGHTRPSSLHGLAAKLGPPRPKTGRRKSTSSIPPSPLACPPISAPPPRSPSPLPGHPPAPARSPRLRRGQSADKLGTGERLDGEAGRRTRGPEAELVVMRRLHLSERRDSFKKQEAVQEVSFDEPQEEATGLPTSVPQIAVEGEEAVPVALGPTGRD

ABL1 = experiment: biochemical; parameters: species or system human, K562 (extract); replicate k of n = 2 (each experiment ID is one independent experiment; two experiment IDs per compound); conditions: human; read-out: KDapp
Sequence of ABL1 (P00519 whole entry): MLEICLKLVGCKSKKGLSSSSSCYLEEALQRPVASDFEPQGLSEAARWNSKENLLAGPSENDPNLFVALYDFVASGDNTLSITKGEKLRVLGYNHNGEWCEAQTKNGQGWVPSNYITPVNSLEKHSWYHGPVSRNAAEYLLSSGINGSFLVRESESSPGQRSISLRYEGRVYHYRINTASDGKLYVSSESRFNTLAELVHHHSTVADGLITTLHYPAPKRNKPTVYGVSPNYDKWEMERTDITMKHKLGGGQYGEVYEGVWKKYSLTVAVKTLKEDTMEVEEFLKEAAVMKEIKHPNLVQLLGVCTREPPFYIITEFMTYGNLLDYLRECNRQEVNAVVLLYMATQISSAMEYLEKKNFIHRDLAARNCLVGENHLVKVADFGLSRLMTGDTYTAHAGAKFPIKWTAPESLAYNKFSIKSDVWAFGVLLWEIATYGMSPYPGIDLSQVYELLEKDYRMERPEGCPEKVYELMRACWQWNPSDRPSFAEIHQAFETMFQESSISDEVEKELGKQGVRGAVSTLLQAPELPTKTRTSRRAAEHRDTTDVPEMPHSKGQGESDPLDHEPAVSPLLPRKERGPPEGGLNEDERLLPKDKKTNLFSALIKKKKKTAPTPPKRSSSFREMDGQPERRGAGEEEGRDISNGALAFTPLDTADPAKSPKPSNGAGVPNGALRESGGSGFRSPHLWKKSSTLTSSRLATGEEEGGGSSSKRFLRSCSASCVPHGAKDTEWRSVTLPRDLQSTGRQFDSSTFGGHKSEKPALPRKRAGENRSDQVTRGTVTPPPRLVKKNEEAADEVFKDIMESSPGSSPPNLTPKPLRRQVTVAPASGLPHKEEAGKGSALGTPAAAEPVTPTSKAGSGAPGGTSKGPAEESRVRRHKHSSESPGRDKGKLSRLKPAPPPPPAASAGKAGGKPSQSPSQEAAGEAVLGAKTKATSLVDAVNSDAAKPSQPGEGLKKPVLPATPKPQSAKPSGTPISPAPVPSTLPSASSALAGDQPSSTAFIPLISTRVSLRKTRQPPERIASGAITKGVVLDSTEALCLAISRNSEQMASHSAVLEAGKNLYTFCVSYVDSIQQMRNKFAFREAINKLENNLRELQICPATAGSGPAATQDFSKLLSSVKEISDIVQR

LOC100128443 = experiment: biochemical; parameters: species or system human, K562 (extract); replicate k of n = 2 (each experiment ID is one independent experiment; two experiment IDs per compound); conditions: human; read-out: KDapp
3D7 PFLDH = system: 3D7 PFLDH; parameters: method as in F.J. Gamo et al., Nature 2010; concentration or dose not given beside the values; conditions: downloaded from ChEMBL, ref F.J. Gamo et al., Nature 2010; cited from earlier work

Structure (SMILES): CN(C)CC(O)COc1ccc(Nc2ncc([N+](=O)[O-])c(Nc3ccccc3O)n2)cc1.O=C(O)C(F)(F)F (centres unmarked) [TCMDC-141399]
- PCT_INHB_DD2 (P. falciparum DD2): 20

Structure (SMILES): Cl.NCC1(c2nc(-c3ccc(Cl)c(O)c3)c(-c3ccncc3)[nH]2)CCCCC1 [TCMDC-141154]
- Kd (TAOK3): 1190 nM and 603 nM

Structure (SMILES): CN1CCN(c2ccc(Nc3ncc(C#N)c(Nc4ccccc4C(N)=O)n3)cc2)CC1.Cl [TCMDC-134116]
- Kd (CHEK1): 92 nM
- Kd (ACVR1): 2200 nM
- Kd (MAST3): 73.1 nM
- Kd (ABL1): 58.6 nM
- Kd (LOC100128443): 199 nM
- PCT_INHIB_3D7_PFLDH (3D7 PFLDH): 0%
